Experimental data: patent publication US10287301B2 (Achillion Pharmaceuticals, Inc., priority 2015, dated 2019)

target: Human Factor D (Homo sapiens (Human), UniProt P00746); assay: Human Factor D Assay; type: biochemical; settings: not given
Method: Human Factor D (purified from human serum, Complement Technology, Inc.) at 80 nM final concentration was incubated with test compound at various concentrations for 5 minutes at room temperature in 50 mM Tris, 1M NaCl, pH 7.5. A synthetic substrate Z-L-Lys-SBzl and DTNB (Ellman's reagent) are added to final concentrations of 100 μM each. […] IC50 values are calculated by nonlinear regression of complement Factor D reaction rates as a function of test compound concentration.

Human Factor D, sequence (P00746 26-253): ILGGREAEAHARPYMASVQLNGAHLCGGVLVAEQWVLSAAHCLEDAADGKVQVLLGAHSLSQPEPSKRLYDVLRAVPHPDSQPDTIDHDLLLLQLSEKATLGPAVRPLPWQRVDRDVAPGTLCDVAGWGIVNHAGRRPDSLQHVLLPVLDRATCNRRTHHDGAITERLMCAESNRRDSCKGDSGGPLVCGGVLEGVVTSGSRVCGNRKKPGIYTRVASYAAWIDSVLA

| Structure (SMILES) | IC50 [nM] |
| --- | --- |
| CC(=O)c1nn(CC(=O)N2C[C@H](F)C[C@H]2C(=O)Nc2cccc(Br)[n+]2[O-])c2ccc(-c3cnc(C)[n+]([O-])c3)cc12 [Compound 744, 5-(3-Acetyl-1-(2-((2S,4R)-2-((6-bromo-1-oxidopyridin-2-yl)carbamoyl)-4-fluoropyrrolidin-1-yl)-2-oxoethyl)-1H-indazol-5-yl)-2-methylpyrimidine 1-oxide] | 1000 to 10000 |

same assay, conditions: Human Factor D 80 nM, substrate Z-L-Lys-SBzl; read-out: IC50

| Structure (SMILES) | IC50 [nM] |
| --- | --- |
| CC(=O)c1cn(CC(=O)N2C[C@H](F)C[C@H]2C(=O)N[C@H]2CCCC[C@@H]2OCc2ccccc2)c2ccc(-c3ccnnc3)cc12 [Compound 74, (2S,4R)-1-(2-(3-acetyl-5-(pyridazin-4-yl)-1H-indol-1-yl)acetyl)-N-((1S,2S)-2-(benzyloxy)cyclohexyl)-4-fluoropyrrolidine-2-carboxamide] | > 10000 |
| CC(=O)c1cn(CC(=O)N2C[C@@H](F)C[C@@H]2C(=O)NC2CCCN(c3ccccc3Cl)C2=O)c2ccc(-c3ccnnc3)cc12 (stereo partly drawn) [Compound 161, (2R,4S)-1-(2-(3-acetyl-5-(pyridazin-4-yl)-1H-indol-1-yl)acetyl)-N-(1-(2-chlorophenyl)-2-oxopiperidin-3-yl)-4-fluoropyrrolidine-2-carboxamide] | < 1000 |
| CC(=O)c1cn(CC(=O)N2C[C@H](F)C[C@H]2C(=O)NC2CCCc3nc(-c4ccc(F)cc4)sc32)c2ccc(-c3ccnnc3)cc12 (stereo partly drawn) [Compound 106, (2S,4R)-1-(2-(3-acetyl-5-(pyridazin-4-yl)-1H-indol-1-yl)acetyl)-4-fluoro-N-(2-(4-fluorophenyl)-4,5,6,7-tetrahydrobenzo[d]thiazol-7-yl)pyrrolidine-2-carboxamide] | > 10000 |
| NC(=O)c1nn(CC(=O)N2C[C@H](F)C[C@H]2C(=O)Nc2cccc(-c3ccccc3Cl)c2F)c2ccc(-c3ccc(F)nc3)cc12 [Compound 12, 1-(2-((2S,4R)-2-((2′-Chloro-2-fluoro-[1,1′-biphenyl]-3-yl)carbamoyl)-4-fluoropyrrolidin-1-yl)-2-oxoethyl)-5-(6-fluoropyridin-3-yl)-1H-indazole-3-carboxamide] | < 1000 |
| NC(=O)c1nn(CC(=O)N2[C@@H]3C[C@@H]3C[C@H]2C(=O)Nc2cccc(OC(F)(F)F)c2F)c2ccc(-c3cncnc3)cc12 [Compound 8, 1-(2-((1R,3S,5R)-3-(2-fluoro-3-(trifluoromethoxy)phenylcarbamoyl)-2-azabicyclo[3.1.0]hexan-2-yl)-2-oxoethyl)-5-(pyrimidin-5-yl)-1H-indazole-3-carboxamide] | < 1000 |
| COc1ncc(-c2ccc3c(c2)c(C(C)=O)cn3CC(=O)N2[C@@H]3C[C@@H]3C[C@H]2C(=O)Nc2cccc(Br)n2)cn1 [Compound 81, (1R,3S,5R)-2-(2-(3-acetyl-5-(2-methoxypyrimidin-5-yl)-1H-indol-1-yl)acetyl)-N-(6-bromopyridin-2-yl)-2-azabicyclo[3.1.0] hexane-3-carboxamide] | < 1000 |

same assay, conditions: Human Factor D assay of Example 8; Table 2; read-out: IC50

| Structure (SMILES) | IC50 [nM] |
| --- | --- |
| CC(=O)c1nn(CC(=O)N2C[C@H](F)C[C@H]2C(=O)Nc2cncc(Br)n2)c2ccc(-c3cnc4cc(C)nn4c3)cc12 [Compound 306, (2S,4R)-1-(2-(3-acetyl-5-(2-methylpyrazolo[1,5-a]pyrimidin-6-yl)-1H-indazol-1-yl)acetyl)-N-(6-bromopyrazin-2-yl)-4-fluoropyrrolidine-2-carboxamide] | < 1000 |
| CC(=O)c1cn(CC(=O)N2C[C@H](F)C[C@H]2C(=O)NCc2cccc(Cl)c2F)c2ccc(-c3cnc4cc(C)nn4c3)cc12 [Compound 299, (2S,4R)-1-(2-(3-acetyl-5-(2-methylpyrazolo[1,5-a]pyrimidin-6-yl)-1H-indol-1-yl)acetyl)-N-(3-chloro-2-fluorobenzyl)-4-fluoropyrrolidine-2-carboxamide] | < 1000 |
| CC(=O)c1nn(CC(=O)N2C[C@H](F)C[C@H]2C(=O)Nc2cccc(Cl)n2)c2ccc(-c3cnc(C)nc3)cc12 [Compound 225, (2S,4R)-1-(2-(3-acetyl-5-(2-methylpyrimidin-5-yl)-1H-indazol-1-yl)acetyl)-N-(6-chloropyridin-2-yl)-4-fluoropyrrolidine-2-carboxamide] | < 1000 |
| CC(=O)c1cn(CC(=O)N2C[C@H](F)C[C@H]2C(=O)Nc2cccc(Br)n2)c2cc(O)c(-c3cnc(C)nc3)cc12 [Compound 328, (4R)-1-(2-(3-Acetyl-6-hydroxy-5-(2-methylpyrimidin-5-yl)-1H-indol-1-yl)acetyl)-N-(6-bromopyridin-2-yl)-4-fluoropyrrolidine-2-carboxamide] | < 1000 |

same assay, conditions: Human Factor D, Table 3; read-out: IC50

| Structure (SMILES) | IC50 [nM] |
| --- | --- |
| CC(=O)c1nn(CC(=O)N2C[C@H](F)C[C@H]2C(=O)Nc2cccc(C(F)(F)F)n2)c2ccc(-c3cnc(C)nc3)cc12 [Compound 562, (2S,4R)-1-(2-(3-Acetyl-5-(2-methylpyrimidin-5-yl)-1H-indazol-1-yl)acetyl)-4-fluoro-N-(6-(trifluoromethyl)pyridin-2-yl)pyrrolidine-2-carboxamide] | < 1000 |
| CC(=O)c1nn(CC(=O)N2CCC[C@H]2C(=O)Nc2cccc(C)n2)c2ccc(-c3ccc4cccnc4c3)cc12 [Compound 589, (S)-1-(2-(3-Acetyl-5-(quinolin-7-yl)-1H-indazol-1-yl)acetyl)-N-(6-methylpyridin-2-yl)pyrrolidine-2-carboxamide] | < 1000 |
| CC(=O)c1cn(CC(=O)N2C[C@H](F)C[C@H]2C(=O)Nc2cccc(OC(F)(F)F)n2)c2ccc(-c3cnc4cc(C)nn4c3)cc12 [Compound 656, (2S,4R)-1-(2-(3-Acetyl-5-(2-methylpyrazolo[1,5-a]pyrimidin-6-yl)-1H-indol-1-yl)acetyl)-4-fluoro-N-(6-(trifluoromethoxy)pyridin-2-yl)pyrrolidine-2-carboxamide] | < 1000 |
| CC(=O)Nc1ncc(-c2ccc3c(c2)c(C(C)=O)nn3CC(=O)N2C[C@H](F)C[C@H]2C(=O)Nc2cccc(Br)n2)cn1 [Compound 597, (2S,4R)-1-(2-(5-(2-Acetamidopyrimidin-5-yl)-3-acetyl-1H-indazol-1-yl)acetyl)-N-(6-bromopyridin-2-yl)-4-fluoropyrrolidine-2-carboxamide] | < 1000 |
| CC(=O)c1nn(CC(=O)N2C[C@H](F)C[C@H]2C(=O)Nc2ccn(CC(F)(F)F)n2)c2ccc(-c3cnc4cc(C)nn4c3)cc12 [Compound 678, (2S,4R)-1-(2-(3-acetyl-5-(2-methylpyrazolo[1,5-a]pyrimidin-6-yl)-1H-indazol-1-yl)acetyl)-4-fluoro-N-(1-(2,2,2-trifluoroethyl)-1H-pyrazol-3-yl)pyrrolidine-2-carboxamide] | < 1000 |
| CC(=O)c1nn(CC(=O)N2C[C@H](F)C[C@H]2C(=O)Nc2cccc(-c3cc(S(=O)(=O)NC4CC4)ccc3Cl)c2F)c2ccc(-c3cnc(C)nc3)cc12 [Compound 745, (2S,4R)-1-(2-(3-Acetyl-5-(2-methylpyrimidin-5-yl)-1H-indazol-1-yl)acetyl)-N-(2′-chloro-5′-(N-cyclopropylsulfamoyl)-2-fluoro-[1,1′-biphenyl]-3-yl)-4-fluoropyrrolidine-2-carboxamide] | < 1000 |
| CC(=O)c1nn(CC(=O)N2[C@@H]3C[C@@H]3C[C@H]2C(=O)Nc2cccc(Br)n2)c2ccc(-c3ccc4nc(C)nn4c3)cc12 [Compound 660, (1R,3S,5R)-2-(2-(3-Acetyl-5-(2-methyl-[1,2,4]triazolo[1,5-a]pyridin-6-yl)-1H-indazol-1-yl)acetyl)-N-(6-bromopyridin-2-yl)-2-azabicyclo[3.1.0]hexane-3-carboxamide] | < 1000 |

same assay, conditions: Table 3; Human Factor D 80 nM, substrate Z-L-Lys-SBzl; read-out: IC50 (Stars)

| Structure (SMILES) | IC50 [nM] |
| --- | --- |
| CC(=O)c1nn(CC(=O)N2C[C@H](F)[C@@H](N)[C@H]2C(=O)Nc2cccc(Br)n2)c2ccc(-c3cnc(C)nc3)cc12 [Compound 427, (2S,3S,4S)-1-(2-(3-Acetyl-5-(2-methylpyrimidin-5-yl)-1H-indazol-1-yl)acetyl)-3-amino-N-(6-bromopyridin-2-yl)-4-fluoropyrrolidine-2-carboxamide] | < 1000 |
| CC(=O)c1nn(CC(=O)N2[C@@H]3C[C@@H]3C[C@H]2C(=O)Nc2cccc(Br)n2)c2ccc(-c3cnc(N)nc3)cc12 [Compound 364, (1R,3S,5R)-2-(2-(3-Acetyl-5-(2-aminopyrimidin-5-yl)-1H-indazol-1-yl)acetyl)-N-(6-bromopyridin-2-yl)-2-azabicyclo[3.1.0]hexane-3-carboxamide] | < 1000 |
| CC(=O)c1nn(CC(=O)N2[C@H](C(=O)Nc3cccc(Br)n3)C[C@@]3(C)C[C@@H]23)c2ccc(-c3cnc(N)nc3)cc12 [Compound 480, (1R,3S,5R)-2-(2-(3-Acetyl-5-(2-aminopyrimidin-5-yl)-1H-indazol-1-yl)acetyl)-N-(6-bromopyridin-2-yl)-5-methyl-2-azabicyclo[3.1.0]hexane-3-carboxamide] | < 1000 |
| CC(=O)NCc1ncc(-c2ccc3c(c2)c(C(C)=O)nn3CC(=O)N2C[C@H](F)C[C@H]2C(=O)Nc2cccc(Br)n2)cn1 [Compound 406, (2S,4R)-1-(2-(5-(2-(Acetamidomethyl)pyrimidin-5-yl)-3-acetyl-1H-indazol-1-yl)acetyl)-N-(6-bromopyridin-2-yl)-4-fluoropyrrolidine-2-carboxamide] | < 1000 |
| CC(=O)c1nn(CC(=O)N2[C@@H]3C[C@@H]3C[C@H]2C(=O)Nc2cncc(Cl)n2)c2ccc(-c3cnc(C)nc3)cc12 [Compound 375, (1R,3S,5R)-2-(2-(3-Acetyl-5-(2-methylpyrimidin-5-yl)-1H-indazol-1-yl)acetyl)-N-(6-chloropyrazin-2-yl)-2-azabicyclo[3.1.0]hexane-3-carboxamide] | < 1000 |
| Cc1ncc(-c2ccc3c(c2)c(C(=O)CO)nn3CC(=O)N2C[C@H](F)C[C@H]2C(=O)Nc2cccc(Br)n2)cn1 [Compound 440, (2S,4R)—N-(6-bromopyridin-2-yl)-4-fluoro-1-(2-(3-(2-hydroxyacetyl)-5-(2-methylpyrimidin-5-yl)-1H-indazol-1-yl)acetyl)pyrrolidine-2-carboxamide] | < 1000 |
